{
  "source": "paper PMC10600239",
  "about": "“Selective MCL-1 inhibitor ABBV-467 is efficacious in tumor models but is associated with cardiac troponin increases in patients” (Communications Medicine, 2023)",
  "key": {"human MCL-1": {"biological_target": "human MCL-1 (Homo sapiens, UniProt Q07820)", "sequence (Q07820 whole entry)": "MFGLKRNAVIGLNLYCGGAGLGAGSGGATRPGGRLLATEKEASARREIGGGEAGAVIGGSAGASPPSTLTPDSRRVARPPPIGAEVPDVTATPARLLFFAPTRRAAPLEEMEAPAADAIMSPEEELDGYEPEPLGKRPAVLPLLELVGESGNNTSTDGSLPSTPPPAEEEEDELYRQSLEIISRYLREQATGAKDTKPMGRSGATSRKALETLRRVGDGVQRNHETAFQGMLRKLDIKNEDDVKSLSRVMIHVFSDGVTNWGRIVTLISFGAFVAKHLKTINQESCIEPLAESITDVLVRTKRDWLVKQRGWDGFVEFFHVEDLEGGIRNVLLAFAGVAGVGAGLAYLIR", "assay": "Time-resolved FRET binding assay", "description": "Test compounds were serially diluted in DMSO starting at […] (20× starting concentration; 100% DMSO followed by a 1:10 dilution of the compound DMSO plate into assay buffer); 10 µL of the compound in 10% DMSO was then transferred into a 384-well plate (low-volume Corning #3673 assay plate). Glutathione S-transferase (GST)-tagged recombinant BCL-2, BCL-XL, MCL-1, BCL-W, or BCL2-A1 protein (1 nM each) were mixed with 100 nM Oregon Green™-labeled f-BAK peptide probe and 1 nM Tb-labeled anti-GST antibody were mixed. Then 10 µL of a 2× protein/probe/antibody mix was added to each well of increasing concentrations of test compound in assay buffer (20 mM potassium phosphate, pH 7.6, 50 mM NaCl, 1 mM ethylenediaminetetraacetic acid disodium salt dihydrate, 0.05% pluronic acid F-68, 1 mM DL-dithiothreitol) at room temperature (final concentrations listed in Supplementary Table S2). The samples were then mixed on a shaker for 1 min and incubated for an additional 1 h at room temperature. For each assay plate, a probe/antibody and protein/antibody/probe mixture were included as a negative and a positive control, respectively. Fluorescence was measured on the EnVision™ (Perkin Elmer) using a 340/35-nm excitation filter and 520/525- (F-Bak) and 495/510-nm (Tb-labeled anti-glutathione S-transferase [GST] antibody) emission filters. Dissociation constants were determined using Wang’s equation[35]. The time-resolved FRET assay can be performed in the presence of varying concentrations of human serum to determine apparent half-maximal inhibitory concentration after serum protein binding."}, "SU-DHL-1 cells": {"system": "SU-DHL-1 cells", "assay": "Cell viability of BAK-deficient and parental SU-DHL-1 cells (CellTiter-Glo)", "format": "cell-based", "settings": "SU-DHL-1, 24 hr", "description": "Supplementary Fig . S4: BAK is required for ABBV-467 ac tiv ity in S U-DHL-1 cells. BAK-deficient SU- D HL -1\ncells were treated with ABBV-4 67 fo r 24 hr at the indicated concentrations and the impact on cell\nviability compared to the parental cell line determined by CellTiter- G lo . N=3 .\n(1 picture or pasted object on this page, not shown here)"}, "[1]": {"assay": "Phase 1 first-in-human study (NCT04178902): efficacy (IMWG criteria, immunoglobulin, free light chain)", "format": "in vivo", "settings": "for Kappa Lt Chain,Free/Lambda Lt Chain,Free / Immunoglobulin G: patient; for Kappa Lt Chain,Free/Lambda Lt Chain,Free: normal range 0.22-1.52; for Immunoglobulin G: normal range 5.65-17.65", "from_the_text": "This FIH study (NCT04178902) for ABBV-467 was a multicenter, open-label, dose-escalation study enrolling patients aged ≥18 years who had R/R MM, with the option to enroll R/R AML once recommended phase 2 dose (RP2D) was established. The study design was originally planned to consist of 2 parts: dose escalation and dose expansion, including a minimum of 6 patients treated during dose escalation at what was ultimately to be declared the RP2D. Patients must have received 3 or more prior lines of therapy including at least 1 or more immunomodulatory agents, 1 or more proteasome inhibitors, and 1 or more anti-CD38 monoclonal antibodies. Other eligibility criteria included: Eastern Cooperative Oncology Group performance status ≤2, measurable disease as defined by International Myeloma Working Group (IMWG) consensus criteria, an echocardiogram with an ejection fraction ≥50%, and adequate hematologic, hepatic, and renal function. The prespecified primary objectives were to characterize the safety and toxicity profiles, to establish the RP2D, and to determine the pharmacokinetic (PK) profile of ABBV-467 monotherapy. Safety evaluations included, but were not limited to, adverse event (AE) monitoring, physical examinations, vital sign measurements, electrocardiogram (ECG), cardiac enzyme monitoring, and clinical laboratory testing (hematology and chemistry) as a measure of safety and tolerability for the entire study duration. Parameters used to determine PK included maximum observed plasma concentration (Cmax), terminal elimination half-life (t1/2), area under the plasma concentration-time curve (AUC) from time 0 to time of last measurable concentration (AUCt), AUC from time 0 to infinity (AUC0-∞), and clearance using non-compartmental methods. Secondary objectives were preliminary evaluation of the efficacy of ABBV-467 in R/R MM and R/R AML. Preliminary efficacy endpoints were overall response rate (ORR), clinical benefit rate (CBR), and duration of response (DOR) as evaluated per adapted IMWG[36] criteria for MM and per adapted International Working Group (IWG)[37] and European Leukemia Net (ELN)[38] criteria for AML."}, "Kv11.1 (hERG)": {"biological_target": "Kv11.1 (hERG) (Homo sapiens, UniProt Q12809)", "sequence (Q12809 whole entry)": "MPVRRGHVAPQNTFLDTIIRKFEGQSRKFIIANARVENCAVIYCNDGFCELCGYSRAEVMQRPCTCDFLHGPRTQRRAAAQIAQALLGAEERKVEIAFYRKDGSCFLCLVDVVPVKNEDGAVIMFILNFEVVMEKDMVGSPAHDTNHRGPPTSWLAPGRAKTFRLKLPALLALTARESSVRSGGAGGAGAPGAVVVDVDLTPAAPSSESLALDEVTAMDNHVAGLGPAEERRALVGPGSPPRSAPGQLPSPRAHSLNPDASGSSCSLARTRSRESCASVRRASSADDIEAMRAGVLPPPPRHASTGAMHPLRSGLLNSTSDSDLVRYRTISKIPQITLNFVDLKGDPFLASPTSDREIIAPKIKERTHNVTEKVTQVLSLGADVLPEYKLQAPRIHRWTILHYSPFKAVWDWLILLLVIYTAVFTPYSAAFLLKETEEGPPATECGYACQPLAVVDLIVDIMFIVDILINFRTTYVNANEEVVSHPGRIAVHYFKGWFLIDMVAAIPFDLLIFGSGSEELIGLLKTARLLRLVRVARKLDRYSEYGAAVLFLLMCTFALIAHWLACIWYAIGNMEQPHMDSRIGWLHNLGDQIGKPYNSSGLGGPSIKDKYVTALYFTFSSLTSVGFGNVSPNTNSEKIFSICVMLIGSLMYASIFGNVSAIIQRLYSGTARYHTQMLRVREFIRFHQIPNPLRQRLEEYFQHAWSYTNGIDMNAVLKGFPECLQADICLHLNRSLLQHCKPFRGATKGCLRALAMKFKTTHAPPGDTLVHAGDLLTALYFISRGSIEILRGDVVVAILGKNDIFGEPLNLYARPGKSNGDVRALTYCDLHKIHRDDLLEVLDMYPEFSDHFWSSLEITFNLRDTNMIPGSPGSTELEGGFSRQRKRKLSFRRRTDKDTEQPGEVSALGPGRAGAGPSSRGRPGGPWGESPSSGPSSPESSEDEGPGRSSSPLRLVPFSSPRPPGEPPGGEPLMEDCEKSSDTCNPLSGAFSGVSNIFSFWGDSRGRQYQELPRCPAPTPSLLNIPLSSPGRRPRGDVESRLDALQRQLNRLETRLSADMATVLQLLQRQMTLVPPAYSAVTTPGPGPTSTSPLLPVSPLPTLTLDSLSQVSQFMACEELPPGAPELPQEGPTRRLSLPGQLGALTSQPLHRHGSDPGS", "assay": "in vitro", "settings": "CHO cells expressing human Kv11.1 (hERG)"}, "OCI-AML2 xenografts": {"system": "OCI-AML2 xenografts", "assay": "OCI-AML2 xenograft efficacy (tumor volume, body weight)", "settings": "for tumor response: for 20 days post-treatment", "protocol": "All animal studies were conducted in accordance with the guidelines approved by the Institutional Animal Care and Use Committees of AbbVie. The research protocol was approved by In Vivo Pharmacology at AbbVie prior to study initiation but was not publicly registered or disclosed. Female C.B-17 SCID-beige mice (AMO-1, OPM-2, NCI-H929, and OCI-AML2 xenografts) and female NSG mice (MV4-11-Red.Fluc systemic) were purchased from Charles River Laboratories (Wilmington, MA). Animals were housed in a light cycle-controlled room with HEPA filtration at 22 °C. Animals had nesting and climbing cage topper as the primary environmental enrichment. Animals were inoculated subcutaneously in the right flank with 5 × 10^6 (AMO-1, OPM-2, NCI-H929, and OCI-AML2) or intravenous (IV) with 5 × 10^6 (MV4-11-Red.Fluc). The inoculation volume (0.2 mL) comprised a 50:50 mixture of cells in growth media and Matrigel (BD Biosciences) for subcutaneous injections and 100% phosphate-buffered saline for IV administration. […] Electronic calipers were used to measure the length and width of each tumor 2 to 3 times per week. Tumor volume was estimated by applying the following equation: volume = length × width^2/2. All groups remained blinded during measurements and dosing; only veterinary staff were aware of group identity. When tumors reached approximately 200 mm^3, mice were randomized by match and distributed into treatment and control groups. All xenograft trials were conducted using 5 to 10 mice per group, and all mice were ear tagged and monitored individually throughout the studies.\nFor combination studies, all compounds were administered within 30 min of each other.\nThe tumor growth delay (TGD) percentage was determined as the percentage increase of the median time period for the treatment group to reach an arbitrary tumor volume of 1000 mm^3 relative to the vehicle control group. […] A power analysis was conducted using historical data to determine the number of animals required to yield significance of 0.05 at a 30% difference. There were no animals excluded. Data from experiments in vivo were analyzed using the student’s t-test for TGI values and the Mann–Whitney U test for TGD using Excel and GraphPad Prism. Fisher’s exact test was used to probe significance of differences in response frequency."}, "[2]": {"settings": "combined with venetoclax and 5-azacitidine"}},
  "note": "Read-outs that look alike come from different tables or passages of the source.",
  "data": [
    {"smiles": "Cc1c(Cl)c2c(Cl)c(C)c1-c1c(-c3ccc(F)cc3)sc3ncnc(c13)O[C@@H](C(=O)O)Cc1cc(ccc1OCc1ccnc(-c3ccc(OC[C@H]4COCCO4)cc3)n1)OC[C@@H](CN1CCN(C)CC1)O2", "note": "[ABBV-467]", "values": [
      {"measurement": "Ki", "setting": "human MCL-1; TR-FRET, arithmetic mean, read-out: Arithmetic Mean Ki, MCL1", "value": "< 0.01", "unit": "nM"},
      {"measurement": "Ki", "setting": "human MCL-1; TR-FRET, individual determinations, read-out: Individual Ki, MCL1", "value": "< 0.01", "unit": "nM"},
      {"measurement": "Ki", "setting": "human MCL-1; read-out: TR-FRET, Ki, nM MCL-1", "value": "< 0.01", "unit": "nM"},
      {"measurement": "effect of BAK deletion on activity", "setting": "SU-DHL-1 cells", "value": "completely inhibited"},
      {"measurement": "duration of stable disease", "setting": "[1]; 1 patient, […] dose level", "value": "approximately 8 months"},
      {"measurement": "objective responses", "setting": "[1]; 8 patients with R/R MM", "value": "No objective responses"},
      {"measurement": "Kappa Lt Chain,Free/Lambda Lt Chain,Free", "setting": "[1]; LBDY 1", "value": 31.35, "unit": "RATIO"},
      {"measurement": "Immunoglobulin G", "setting": "[1]; LBDY 1", "value": 28.1, "unit": "g/L"},
      {"measurement": "Kappa Lt Chain,Free/Lambda Lt Chain,Free", "setting": "[1]; LBDY 29", "value": 25.56, "unit": "RATIO"},
      {"measurement": "Immunoglobulin G", "setting": "[1]; LBDY 29", "value": 26.9, "unit": "g/L"},
      {"measurement": "Kappa Lt Chain,Free/Lambda Lt Chain,Free", "setting": "[1]; LBDY 57", "value": 23.38, "unit": "RATIO"},
      {"measurement": "Immunoglobulin G", "setting": "[1]; LBDY 57", "value": 23.3, "unit": "g/L"},
      {"measurement": "Kappa Lt Chain,Free/Lambda Lt Chain,Free", "setting": "[1]; LBDY 85", "value": 6.92, "unit": "RATIO"},
      {"measurement": "Immunoglobulin G", "setting": "[1]; LBDY 85", "value": 28.9, "unit": "g/L"},
      {"measurement": "Kappa Lt Chain,Free/Lambda Lt Chain,Free", "setting": "[1]; LBDY 115", "value": 6.82, "unit": "RATIO"},
      {"measurement": "Immunoglobulin G", "setting": "[1]; LBDY 115", "value": 30.6, "unit": "g/L"},
      {"measurement": "Kappa Lt Chain,Free/Lambda Lt Chain,Free", "setting": "[1]; LBDY 143", "value": 7.51, "unit": "RATIO"},
      {"measurement": "Immunoglobulin G", "setting": "[1]; LBDY 143", "value": 29.6, "unit": "g/L"},
      {"measurement": "Kappa Lt Chain,Free/Lambda Lt Chain,Free", "setting": "[1]; LBDY 171", "value": 8.26, "unit": "RATIO"},
      {"measurement": "Immunoglobulin G", "setting": "[1]; LBDY 171", "value": 24.4, "unit": "g/L"},
      {"measurement": "Kappa Lt Chain,Free/Lambda Lt Chain,Free", "setting": "[1]; LBDY 199", "value": 3.99, "unit": "RATIO"},
      {"measurement": "Immunoglobulin G", "setting": "[1]; LBDY 199", "value": 40.2, "unit": "g/L"},
      {"measurement": "Kappa Lt Chain,Free/Lambda Lt Chain,Free", "setting": "[1]; LBDY 227", "value": 5.42, "unit": "RATIO"},
      {"measurement": "Immunoglobulin G", "setting": "[1]; LBDY 227", "value": 29.5, "unit": "g/L"},
      {"measurement": "Kappa Lt Chain,Free/Lambda Lt Chain,Free", "setting": "[1]; LBDY 238", "value": 8.01, "unit": "RATIO"},
      {"measurement": "Immunoglobulin G", "setting": "[1]; LBDY 238", "value": 32.9, "unit": "g/L"},
      {"measurement": "Kappa Lt Chain,Free/Lambda Lt Chain,Free", "setting": "[1]; LBDY -6", "value": 31.47, "unit": "RATIO"},
      {"measurement": "Immunoglobulin G", "setting": "[1]; LBDY -6", "value": 23.8, "unit": "g/L"},
      {"measurement": "IC50", "setting": "Kv11.1 (hERG)", "value": "> 30000", "unit": "nM"},
      {"measurement": "TGD", "setting": "OCI-AML2 xenografts; combined with venetoclax", "value": "> 878", "unit": "%"},
      {"measurement": "TGI", "setting": "OCI-AML2 xenografts; combined with venetoclax", "value": 99, "unit": "%"},
      {"measurement": "TGD", "setting": "OCI-AML2 xenografts; [2]", "value": "> 878", "unit": "%"},
      {"measurement": "TGI", "setting": "OCI-AML2 xenografts; [2]", "value": 99, "unit": "%"},
      {"measurement": "tumor response", "setting": "OCI-AML2 xenografts; [2]", "value": "complete tumor regression in all tumors"},
      {"measurement": "tumor response", "setting": "OCI-AML2 xenografts; combined with venetoclax", "value": "complete tumor regression in all tumors"},
      {"measurement": "animals remaining tumor free at 120 days post-inoculation", "setting": "OCI-AML2 xenografts; doublet (with venetoclax)", "value": 62.5, "unit": "%"},
      {"measurement": "sensitivity of OCI-AML2 tumors", "setting": "OCI-AML2 xenografts; in combination with 5-azacitidine", "value": "resistant"},
      {"measurement": "sensitivity of OCI-AML2 tumors", "setting": "OCI-AML2 xenografts; monotherapy", "value": "resistant"},
      {"measurement": "animals remaining tumor free at 120 days post-inoculation", "setting": "OCI-AML2 xenografts; triplet (with venetoclax and 5-azacitidine)", "value": 62.5, "unit": "%"}
    ]}
  ]
}
